In patent US12448363B2, “Kinase inhibitors” (Vidya Therapeutics, Inc., priority 2020, dated 2025):

Tests used:
[1] = test system: BTK Activity in RAMOS B Cells; test: Assay to determine BTK activity in RAMOS B cells (anti-IgM, FLIPR Calcium 6); type: cell-based; settings: EC80 anti-IgM, FLIPR calcium read
Experimental: On the day before assay, Ramos B cells were plated in plating medium (RPMI1640 medium containing 1% FBS and 1× pencillin-streptomycin). On the day of the assay, 2× dye solution was prepared following the manual of the FLIRP Calcium 6 Assay Kit: Dilute the dye with assay buffer (20 mM HEPES in 1×HBSS, pH7.4); Add probenecid to the final concentration of 5 mM; vortex vigorously for 1-2 minutes. Cells were collected by centrifuging, and the pellet was resuspended in plating medium. After counting, cells were resuspended at a density of 3×10^6/ml in plating medium. Equal volume of 2× dye solution was added to the cell suspension. Cells were then plated at 20 μl/well into a 384-well poly-D-lysine coated plate. Plate was centrifuged at 1000 rpm for 3 minutes and then incubated at 37° C. for 2 hours followed by an additional 15-minute incubation at 25° C. Compounds were prepared at 3× concentration in dilution buffer (20 mM HEPES and 0.1% BSA in 1×HBSS, pH 7.4). Serially diluted compound was transferred from source plate to a 384-well compound plate by using an Echo 550 (Labcyte). 20 μl/well compound dilution buffer was added to the compound plate and mixed on plate shaker for 2 mins. 4×EC80 of Anti-IgM (Jackson ImmunoResearch) was prepared in dilution buffer and 20 μl/well was added to a new 384-well compound plate. After 60 mins of incubation at 25° C. in the dark; cell plate, compound plate containing 4×EC80 of anti-IgM and FLIPR tips were placed into FLIPR (Molecular Devices). 10 ul/well of 4×EC80 anti-IgM was transferred to the cell plate by FLIPR. Plates were read for 160 sec with 1 sec interval.
With respect to Ramos activity, Table 9 lists activity as follows: • “A” denotes an IC50 of less than 10 nM; • “B” denotes an IC50 of from 10 nM to less than 100 nM; and • “C” denotes and IC50 of 100 nM or more.

BTK = BTK (Homo sapiens, UniProt Q06187); test: Assay to determine activity against BTK (EZ reader, FLPeptide); type: biochemical; design: purchased Carna; settings: ATP (1 mM), BTK (2 nM), room temperature for 90 minutes
Experimental: Solutions of compounds (test or control) in DMSO were prepared at the desired concentrations, and serially diluted to 11 concentrations by 3-fold dilution in 384pp-plate using TECAN EVO200. 20 nL of stock were transferred to 384 plate using Echo550. DMSO was used as vehicle control.
Two separate solutions were prepared—an ATP solution containing MgCl2 (10 mM), Brij-35 (0.01%), DTT (2 mM), BSA (0.05%), EGTA (1 mM), HEPE (pH7.5) (50 mM), FLPeptide (6 uM) and ATP (4 mM); and a BTK solution containing MgCl2 (10 mM), Brij-35 (0.01%), DTT (2 mM), BSA (0.05%), EGTA (1 mM), HEPE (pH7.5) (50 mM) and BTK (2.67 nM). […] (Note the final volume of each well was 20 uL containing MgCl2 (10 mM), Brij-35 (0.01%), DTT (2 mM), BSA (0.05%), EGTA (1 mM), HEPE (pH7.5) (50 mM), FLPeptide (1.5 uM), ATP (1 mM) and BTK (2 nM).
The plates were incubated at room temperature for 90 minutes and then stopping buffer added (75 uL, containing 0.5 M EDTA) to terminate the reaction. Samples from each well were analyzed using EZ reader. The % remaining activity was calculated using read conversion ratio (CR) according to the equation: […]
XLFit (equation 201) was used to calculate IC50s by floating both bottom and top.
With respect to BTK activity, Table 4 lists activity as follows: • “A” denotes an IC50 of less than 10 nM, • “B” denotes an IC50 of from 10 nM to less than 100 nM; and • “C” denotes and IC50 of 100 nM or more.

BTK, sequence (Q06187 whole entry): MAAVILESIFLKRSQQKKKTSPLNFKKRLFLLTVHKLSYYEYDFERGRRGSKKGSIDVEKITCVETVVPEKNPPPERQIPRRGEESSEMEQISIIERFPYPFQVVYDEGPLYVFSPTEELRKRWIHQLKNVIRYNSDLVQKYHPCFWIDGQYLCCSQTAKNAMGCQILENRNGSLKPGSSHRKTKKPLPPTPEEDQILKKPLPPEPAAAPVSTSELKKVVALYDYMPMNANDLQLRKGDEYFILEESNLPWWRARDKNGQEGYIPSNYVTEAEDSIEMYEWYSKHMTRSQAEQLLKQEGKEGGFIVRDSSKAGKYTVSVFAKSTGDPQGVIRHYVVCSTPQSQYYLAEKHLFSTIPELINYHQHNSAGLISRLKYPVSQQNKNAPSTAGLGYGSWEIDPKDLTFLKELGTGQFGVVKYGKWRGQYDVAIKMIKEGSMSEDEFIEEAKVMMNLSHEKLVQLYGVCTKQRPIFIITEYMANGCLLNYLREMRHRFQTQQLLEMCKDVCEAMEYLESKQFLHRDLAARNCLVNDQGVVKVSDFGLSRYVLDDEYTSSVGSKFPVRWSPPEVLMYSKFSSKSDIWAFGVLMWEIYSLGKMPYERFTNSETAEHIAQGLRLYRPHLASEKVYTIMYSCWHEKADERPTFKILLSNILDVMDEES

| Structure (SMILES) | IC50 ([1]; Homo sapiens, Ramos) [nM] | IC50 (BTK) [nM] | IC50 [1] [nM] | IC50 ([1]; Homo sapiens) [nM] |
| --- | --- | --- | --- | --- |
| C=CC(=O)N1CCCC(c2c(F)c(F)c(C(N)=O)c3[nH]c(C)c(F)c23)C1 (centres unmarked) [Compound 13, 4-(1-acryloylpiperidin-3-yl)-3,5,6-trifluoro-2-methyl-1H-indole-7-carboxamide] | < 10 | < 10 |  |  |
| C=CC(=O)N1CCCC(c2c(F)cc(C(N)=O)c3[nH]c(C)c(C(F)F)c23)C1 (centres unmarked) [Compound 14, 4-(1-acryloylpiperidin-3-yl)-3-(difluoromethyl)-5-fluoro-2-methyl-1H-indole-7-carboxamide] | ≥ 100 | ≥ 100 |  |  |
| CC#CC(=O)N1CCC[C@H](c2c(F)cc(C(N)=O)c3[nH]c(C)c(Cl)c23)C1 [Compound 17, (R)-4-(1-(but-2-ynoyl)piperidin-3-yl)-3-chloro-5-fluoro-2-methyl-1H-indole-7-carboxamide] | ≥ 100 | ≥ 100 |  |  |
| CC#CC(=O)N1CCC[C@@H](c2c(F)cc(C(N)=O)c3[nH]c(C)c(Cl)c23)C1 [Compound 18, (S)-4-(1-(but-2-ynoyl)piperidin-3-yl)-3-chloro-5-fluoro-2-methyl-1H-indole-7-carboxamide] | ≥ 100 | ≥ 100 |  |  |
| CC#CC(=O)N1CCC=C(c2c(F)cc(C(N)=O)c3[nH]c(C)c(Cl)c23)C1 [Compound 19, 4-(1-(but-2-ynoyl)-1,2,5,6-tetrahydropyridin-3-yl)-3-chloro-5-fluoro-2-methyl-1H-indole-7-carboxamide] | ≥ 100 | ≥ 100 |  |  |
| C=CC(=O)N1CCc2c(cccc2-c2c(F)cc(C(N)=O)c3[nH]c(C)c(C#N)c23)C1 [Compound 20g, 4-(2-acryloyl-1,2,3,4-tetrahydroisoquinolin-5-yl)-3-cyano-5-fluoro-2-methyl-1H-indole-7-carboxamide] |  | < 10 | 10 to 100 |  |
| C#CC(=O)N1CCc2c(cccc2-c2c(F)cc(C(N)=O)c3[nH]c(C)c(C)c23)C1 [Compound 20j, 5-fluoro-2,3-dimethyl-4-(2-propioloyl-1,2,3,4-tetrahydroisoquinolin-5-yl)-1H-indole-7-carboxamide] | 10 to 100 | < 10 |  |  |
| C=CC(=O)N1CCc2c(cccc2-c2c(F)c(F)c(C(N)=O)c3[nH]c(C)c(Cl)c23)C1 [Compound 21a, 4-(2-acryloyl-1,2,3,4-tetrahydroisoquinolin-5-yl)-3-chloro-5,6-difluoro-2-methyl-1H-indole-7-carboxamide] |  | < 10 | 10 to 100 |  |
| C=CC(=O)N1CCc2c(cccc2-c2c(F)c(F)c(C(N)=O)c3[nH]c(C)c(F)c23)C1 [Compound 21d, 4-(2-acryloyl-1,2,3,4-tetrahydroisoquinolin-5-yl)-3,5,6-trifluoro-2-methyl-1H-indole-7-carboxamide] | 10 to 100 | 10 to 100 |  |  |
| C=CC(=O)N1CCc2c(cccc2-c2c(F)c(F)c(C(N)=O)c3[nH]c(C)c(C#N)c23)C1 [Compound 21e, 4-(2-acryloyl-1,2,3,4-tetrahydroisoquinolin-5-yl)-3-cyano-5,6-difluoro-2-methyl-1H-indole-7-carboxamide] | 10 to 100 | 10 to 100 |  |  |
| C=CC(=O)N1CCc2c(-c3c(F)cc(C(N)=O)c4[nH]c(C)cc34)cccc2C1C1CC1 (centres unmarked) [Compound 23, 4-(2-acryloyl-1-cyclopropyl-1,2,3,4-tetrahydroisoquinolin-5-yl)-5-fluoro-2-methyl-1H-indole-7-carboxamide] | 10 to 100 | 10 to 100 |  |  |
| C=CC(=O)N1Cc2cccc(-c3c(F)cc(C(N)=O)c4[nH]c(C)c(Cl)c34)c2C2(CC2)C1 [Compound 24a, 4-(2′-Acryloyl-2′,3′-dihydro-1′H-spiro[cyclopropane-1,4′-isoquinolin]-5′-yl)-3-chloro-5-fluoro-2-methyl-1H-indole-7-carboxamide] | ≥ 100 | 10 to 100 |  |  |
| C=CC(=O)N1Cc2cccc(-c3c(F)cc(C(N)=O)c4[nH]c(C)cc34)c2C2(CC2)C1 [Compound 24b, 4-(2′-acryloyl-2′,3′-dihydro-1′H-spiro[cyclopropane-1,4′-isoquinolin]-5′-yl)-5-fluoro-2-methyl-1H-indole-7-carboxamide] | ≥ 100 | ≥ 100 |  |  |
| C=CC(=O)N1CCCc2c(cccc2-c2c(F)cc(C(N)=O)c3[nH]c(C)c(Cl)c23)C1 [Compound 25a, 4-(2-Acryloyl-2,3,4,5-tetrahydro-1H-benzo[c]azepin-6-yl)-3-chloro-5-fluoro-2-methyl-1H-indole-7-carboxamide] | 10 to 100 | 10 to 100 |  |  |
| C=CC(=O)N1CCCc2c(cccc2-c2c(F)cc(C(N)=O)c3[nH]c(C)cc23)C1 [Compound 25b, 4-(2-acryloyl-2,3,4,5-tetrahydro-1H-benzo[c]azepin-6-yl)-5-fluoro-2-methyl-1H-indole-7-carboxamide] |  | 10 to 100 |  | ≥ 100 |
| C=CC(=O)N1CCCc2c(cccc2-c2c(F)cc(C(N)=O)c3[nH]c(C)c(F)c23)C1 [Compound 25e, 4-(2-acryloyl-2,3,4,5-tetrahydro-1H-benzo[c]azepin-6-yl)-3,5-difluoro-2-methyl-1H-indole-7-carboxamide] | ≥ 100 | 10 to 100 |  |  |
| C=CC(=O)N1CC2CC1c1cccc(-c3c(F)cc(C(N)=O)c4[nH]c(C)c(Cl)c34)c12 (centres unmarked) [Compound 26, 4-(2-acryloyl-1,2,3,4-tetrahydro-1,4-methanoisoquinolin-5-yl)-3-chloro-5-fluoro-2-methyl-1H-indole-7-carboxamide] | ≥ 100 | ≥ 100 |  |  |
| C=CC(=O)N[C@H]1CN(c2c(F)cc(C(N)=O)c3[nH]c(C)c(C)c23)CC[C@@H]1F [Compound 30, 4-((3S,4S)-3-acrylamido-4-fluoropiperidin-1-yl)-5-fluoro-2,3-dimethyl-1H-indole-7-carboxamide] | 10 to 100 | 10 to 100 |  |  |
| C=CC(=O)N[C@H]1CN(c2c(F)cc(C(N)=O)c3[nH]c(C)c(C)c23)CC[C@H]1F [Compound 31, 4-((3S,4R)-3-acrylamido-4-fluoropiperidin-1-yl)-5-fluoro-2,3-dimethyl-1H-indole-7-carboxamide] | 10 to 100 | 10 to 100 |  |  |
| C=CC(=O)N[C@H]1C[C@@H](F)CN(c2c(F)cc(C(N)=O)c3[nH]c(C)c(C)c23)C1 [Compound 34, 4-((3S,5R)-3-acrylamido-5-fluoropiperidin-1-yl)-5-fluoro-2,3-dimethyl-1H-indole-7-carboxamide] | ≥ 100 | 10 to 100 |  |  |
| C=CC(=O)N[C@H]1C[C@@H](O)CN(c2c(F)cc(C(N)=O)c3[nH]c(C)c(C)c23)C1 [Compound 37, 4-((3S,5R)-3-acrylamido-5-hydroxypiperidin-1-yl)-5-fluoro-2,3-dimethyl-1H-indole-7-carboxamide] | ≥ 100 | 10 to 100 |  |  |
| C=CC(=O)N[C@H]1C[C@H](O)CN(c2c(F)cc(C(N)=O)c3[nH]c(C)c(C)c23)C1 [Compound 38, 4-((3S,5S)-3-acrylamido-5-hydroxypiperidin-1-yl)-5-fluoro-2,3-dimethyl-1H-indole-7-carboxamide] | 10 to 100 | 10 to 100 |  |  |
